Measurements taken from patent US20140243418A1, “RASAGILINE FOR PARKINSON'S DISEASE MODIFICATION” (Teva Pharmaceutical Industries, Ltd., priority 2008, published 2014).

System: Early Stage PD patients
Conditions: 1 mg only; end of the PC phase
Excerpt: III. Additional Efficacy Endpoints • 1. Number (%) of subjects who need additional anti-PD therapy • 2. Time to need of additional anti-PD therapy • 3. Change from baseline to LOV in placebo-controlled phase in Part I of revised UPDRS (version 4)

With C#CCN[C@@H]1CCc2ccccc21 [rasagiline] the “UPDRS Version 4 Part 1” value was “beneficial effect”.
